Target: T1, ABA2 (ABA DEFICIENT 2) (Arabidopsis thaliana, UniProt Q9C826)
T1 sequence (Q9C826 1-285 limits assumed): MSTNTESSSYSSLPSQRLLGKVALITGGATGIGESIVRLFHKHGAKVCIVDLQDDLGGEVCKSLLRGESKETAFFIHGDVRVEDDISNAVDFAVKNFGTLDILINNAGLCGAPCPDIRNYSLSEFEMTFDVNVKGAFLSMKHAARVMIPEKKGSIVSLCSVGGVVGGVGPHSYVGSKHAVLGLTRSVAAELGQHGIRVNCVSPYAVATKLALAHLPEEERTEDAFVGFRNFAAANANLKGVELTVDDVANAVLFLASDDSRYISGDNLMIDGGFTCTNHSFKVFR
Assay: NADH formation at A340, dehydrogenase activity
Type: biochemical
Details: 500 μM NAD+, 30 mM 3,5,5′-trimethylcyclohexanol, 100 mM K2HPO4 pH 7.2, 25°C; noncompetitive

With di-18:1-PA the “% decrease of activity (2 μg lipid)” value was 75%.

From PMC10869644 (Molecular plant, 2024)
